Results: patent US20250129097
Where two headings read alike, the source gives them in different places.

Columns and labels:
[1] = ester bond, 18-membered ring, EDCI/HOBt/DIEA, DCM
[2] = from CCn1c(-c2cc(N3CCN(c4cccc(COC=O)c4)CC3)cnc2[C@H](C)OC)c(CC(C)(C)CO)c2cc([C@@H]3C[C@H]3CC[C@H](NC(=O)OC(C)(C)C)C(=O)N3CCC[C@@H](C(=O)O)N3)ccc21; ester bond; 18-membered ring; EDCI/HOBt/DIEA; DCM; 10.8 mM; 45.0 °C; 16.0 h

CCn1c(-c2cc(N3CCN(C(=O)OCc4ccccc4)CC3)cnc2[C@@H](C)OC)c(CC(C)(C)CO)c2cc([C@H]3C[C@@H]3N(C)C[C@@H](NC(=O)OC(C)(C)C)C(=O)N3CCC[C@@H](C(=O)OC)N3)ccc21
ring closure, isolated yield ([1]; the molecule shown is the open-chain precursor, 10.3 mM, 35.0 °C): 16%

CCn1c(-c2cccnc2[C@H](C)OC)c2c3cc(ccc31)[C@@H]1C[C@H]1OC[C@H](NC(=O)OC(C)(C)C)C(=O)N1CCC[C@H](N1)C(=O)OCC(C)(C)C2
ring closure, isolated yield ([1]; from CCn1c(-c2cccnc2[C@H](C)OC)c(CC(C)(C)CO)c2cc([C@@H]3C[C@H]3OC[C@H](NC(=O)OC(C)(C)C)C(=O)N3CCC[C@@H](C(=O)O)N3)ccc21, 13.8 mM, 20.0 °C, 12.0 h): 37%

CCn1c(-c2cc(N3CCN(c4cccc(COC=O)c4)CC3)cnc2[C@H](C)OC)c2c3cc(ccc31)[C@@H]1C[C@H]1CC[C@H](NC(=O)OC(C)(C)C)C(=O)N1CCC[C@H](N1)C(=O)OCC(C)(C)C2
ring closure, yield after HPLC [2]: 4.8%
